Data: patent US20150119251A1, “AGRICULTURAL PLANT-PROTECTING AGENTS CONTAINING DIPEPTIDE DERIVATIVE AS ACTIVE INGREDIENT” (REPUBLIC OF KOREA (RURAL DEVELOPMENT ADMINISTRATION), priority 2012, published 2015)
Peptide text beside a SMILES is read from it. * marks the point of attachment. Boc = CC(C)(C)OC(=O)*; OtBu = CC(C)(C)O*

System: tobacco bacterial rot (Pectobacterium carotovorum)
Test: Suppression of tobacco bacterial rot
Format: in vivo, Pectobacterium carotovorum SCC1
Experimental: A tobacco or cucumber was sown in a plastic pot with a diameter of 10 cm×13 cm, and then, 12 pots were added in a yellow box. After seeding, 100 μL was inoculated to the cotyledons of cucumber or tobacco, in which first leaf was started to come out. The test compounds were dissolved in 20% methanol to make a stock solution, and then, the stock solution was diluted to the concentrations of 1, 10, and 100 ppm.
After 7 days, the pathogen of a plant bacterial rot (Pectobacterium carotovorum SCC1) was cultured in a TSA medium for 27 hours; and then, the cultured pathogen was sprayed in a concentration of 10^8 cfu/mL to the plant leaves, and cultured at 30° C. for 3 days. The plant anthracnose germ (Colletotrichum orbiculare) was cultured in a GBA (Green bean agar) medium to induce spores for about 2 to 3 weeks. The germ was sprayed in a concentration of 10^5 cell/mL and then cultured at 26° C. for 1 day. When fourth or fifth leaf came out, 200 μL of each of the test compounds was inoculated to third leaf. After 7 days, the pathogen of the plant bacterial rot was sprayed to the plant leaves in the concentration of 10^8 cfu/mL, and then cultured at 30° C. for 3 days.
The investigation was performed with naked eyes, and the lesion relative areas were investigated until 0 to 100% according to the shortness degrees of the bacterial rot. The anthracnose was investigated by counting the number of lesions occurred on the leaves.

SMILES	Lesion outbreak rate (Table 3, tobacco, 1 ppm) [%]	Lesion outbreak rate (Table 3, tobacco, 10 ppm) [%]	Lesion outbreak rate (Table 3, tobacco, 100 ppm) [%]	Lesion outbreak rate (Table 6, tobacco, 1 ppm) [%]	Lesion outbreak rate (Table 6, tobacco, 10 ppm) [%]	Lesion outbreak rate (Table 6, tobacco, 100 ppm) [%]	also measured
COC(=O)[C@H](CC(C)C)NC(=O)[C@H](CO)NC(=O)OC(C)(C)C [Compound 1] (Boc-Ser-Leu-OMe)	73	10	57	–	–	–	–
COC(=O)[C@H](CC(C)C)NC(=O)[C@@H](N)CO [Compound 2] (H-Ser-Leu-OMe)	60	39	41	–	–	–	–
COC(=O)CNC(=O)[C@H](CC(C)C)NC(=O)OC(C)(C)C [Compound 3] (Boc-Leu-Gly-OMe)	13	68	80	–	–	–	–
CCOC(=O)[C@H](C)NC(=O)[C@H](CC(C)C)NC(=O)OC(C)(C)C [Compound 9] (Boc-Leu-Ala-OEt)	90	53	82	–	–	–	–
CCOC(=O)[C@H](C)NC(=O)[C@@H](N)CC(C)C [Compound 10] (H-Leu-Ala-OEt)	80	73	87	–	–	–	–
CC(C)C[C@H](N)C(=O)N[C@@H](C)C(=O)O [Compound 11] (H-Leu-Ala-OH)	30	46	21	–	–	–	–
COC(=O)[C@H](C)NC(=O)[C@@H](NC(=O)OC(C)(C)C)C(C)C [Compound 12] (Boc-Val-Ala-OMe)	–	–	–	45	33	25	–
COC(=O)[C@H](C)NC(=O)[C@H](C)NC(=O)OC(C)(C)C [Compound 13] (Boc-Ala-Ala-OMe)	–	–	–	100	100	28	–
COC(=O)[C@H](Cc1c[nH]c2ccccc12)NC(=O)CNC(=O)OC(C)(C)C [Compound 16] (Boc-Gly-Trp-OMe)	–	–	–	25	25	53	–
COC(=O)[C@H](Cc1c[nH]c2ccccc12)NC(=O)[C@@H](NC(=O)OC(C)(C)C)C(C)C [Compound 17] (Boc-Val-Trp-OMe)	–	–	–	100	25	100	–
COC(=O)CNC(=O)CNC(=O)OC(C)(C)C [Compound 18] (Boc-Gly-Gly-OMe)	–	–	–	80	75	68	–
COC(=O)[C@@H]1CCCN1C(=O)[C@H](Cc1ccccc1)NC(=O)OC(C)(C)C [Compound 19] (Boc-Phe-Pro-OMe)	–	–	–	49	42	50	–
COC(=O)[C@@H]1CCCN1C(=O)[C@H](C)NC(=O)OC(C)(C)C [Compound 20] (Boc-Ala-Pro-OMe)	–	–	–	56	63	51	–
COC(=O)[C@@H]1CCCN1C(=O)[C@@H](NC(=O)OC(C)(C)C)C(C)C [Compound 21] (Boc-Val-Pro-OMe)	–	–	–	37	46	35	–
COC(=O)[C@@H]1CCCN1C(=O)[C@H](CC(C)C)NC(=O)OC(C)(C)C [Compound 22] (Boc-Leu-Pro-OMe)	–	–	–	35	24	46	–
COC(=O)[C@@H]1CCCN1C(=O)[C@H](CCC(N)=O)NC(=O)OC(C)(C)C [Compound 23] (Boc-Gln-Pro-OMe)	–	–	–	25	52	36	–
COC(=O)C1CCCN1C(=O)C(NC(=O)OC(C)(C)C)C(C)O (stereo not drawn) [Compound 24] (Boc-Thr-Pro-OMe; configuration not given here)	–	–	–	–	–	–	Lesion outbreak rate (Table 4, tobacco, 1 ppm): 13%; Lesion outbreak rate (Table 4, tobacco, 10 ppm): 65%; Lesion outbreak rate (Table 4, tobacco, 100 ppm): 33%
COC(=O)[C@@H]1CCCN1C(=O)[C@H](CC(=O)OC(C)(C)C)NC(=O)OC(C)(C)C [Compound 25] (Boc-Asp(OtBu)-Pro-OMe)	–	–	–	–	–	–	Lesion outbreak rate (Table 4, tobacco, 1 ppm): 50%; Lesion outbreak rate (Table 4, tobacco, 10 ppm): 70%; Lesion outbreak rate (Table 4, tobacco, 100 ppm): 50%
COC(=O)[C@@H]1CCCN1C(=O)[C@H](CC(N)=O)NC(=O)OC(C)(C)C [Compound 26] (Boc-Asn-Pro-OMe)	–	–	–	–	–	–	Lesion outbreak rate (Table 4, tobacco, 1 ppm): 63%; Lesion outbreak rate (Table 4, tobacco, 10 ppm): 23%; Lesion outbreak rate (Table 4, tobacco, 100 ppm): 60%
COC(=O)[C@@H]1CCCN1C(=O)[C@@H]1CCCN1C(=O)OC(C)(C)C [Compound 27] (Boc-Pro-Pro-OMe)	–	–	–	–	–	–	Lesion outbreak rate (Table 4, tobacco, 1 ppm): 33%; Lesion outbreak rate (Table 4, tobacco, 10 ppm): 30%; Lesion outbreak rate (Table 4, tobacco, 100 ppm): 20%
